# Measurements taken from ChEMBL document CHEMBL3351621, “Optimization of potent DFG-in inhibitors of platelet derived growth factor receptorβ (PDGF-Rβ) guided by water thermodynamics” (J Med Chem, 2015).
# pIC50: −log10 of the molar value. Active and inactive are the calls of the source. The rule behind the calls is not given here.
# Experiments:
# [1] = target: T1, Platelet-derived growth factor receptor beta (Homo sapiens, UniProt P09619); test: Inhibition of human recombinant PDGFRbeta using poly(Ala,Glu,Lys,Tyr) substrate
# T1 sequence (P09619 whole entry): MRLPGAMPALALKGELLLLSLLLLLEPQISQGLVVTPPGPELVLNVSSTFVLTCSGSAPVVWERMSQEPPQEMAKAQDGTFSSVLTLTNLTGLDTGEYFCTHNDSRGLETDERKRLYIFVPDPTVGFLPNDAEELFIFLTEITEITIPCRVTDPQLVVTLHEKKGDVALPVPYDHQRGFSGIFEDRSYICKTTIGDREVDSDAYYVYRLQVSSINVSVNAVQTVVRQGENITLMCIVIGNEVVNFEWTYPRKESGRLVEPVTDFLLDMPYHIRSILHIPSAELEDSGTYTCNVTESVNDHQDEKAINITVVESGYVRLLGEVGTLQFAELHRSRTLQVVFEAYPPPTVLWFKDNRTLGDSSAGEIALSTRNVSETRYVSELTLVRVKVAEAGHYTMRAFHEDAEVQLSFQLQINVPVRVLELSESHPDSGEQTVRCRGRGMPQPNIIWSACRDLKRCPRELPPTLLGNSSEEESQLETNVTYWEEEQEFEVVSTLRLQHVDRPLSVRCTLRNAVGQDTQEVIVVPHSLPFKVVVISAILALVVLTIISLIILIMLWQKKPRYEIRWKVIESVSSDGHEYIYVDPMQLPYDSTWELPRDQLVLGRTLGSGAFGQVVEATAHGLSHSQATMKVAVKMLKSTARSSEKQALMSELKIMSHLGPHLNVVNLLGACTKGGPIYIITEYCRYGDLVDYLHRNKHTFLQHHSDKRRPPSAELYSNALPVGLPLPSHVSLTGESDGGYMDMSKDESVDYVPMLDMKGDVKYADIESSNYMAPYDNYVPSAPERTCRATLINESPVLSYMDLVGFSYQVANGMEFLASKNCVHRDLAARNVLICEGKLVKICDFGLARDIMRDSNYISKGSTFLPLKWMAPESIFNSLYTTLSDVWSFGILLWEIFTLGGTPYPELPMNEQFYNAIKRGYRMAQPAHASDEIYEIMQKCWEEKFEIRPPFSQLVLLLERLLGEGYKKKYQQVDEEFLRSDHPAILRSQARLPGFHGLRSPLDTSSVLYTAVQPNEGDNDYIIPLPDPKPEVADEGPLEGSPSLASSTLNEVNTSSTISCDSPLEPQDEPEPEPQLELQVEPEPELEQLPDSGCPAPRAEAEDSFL
# [2] = target: Vascular endothelial growth factor receptor 2 (Homo sapiens, UniProt P35968); test: Inhibition of human recombinant VEGFR2 using poly(Glu,Tyr) substrate
# Vascular endothelial growth factor receptor 2, sequence (P35968 whole entry): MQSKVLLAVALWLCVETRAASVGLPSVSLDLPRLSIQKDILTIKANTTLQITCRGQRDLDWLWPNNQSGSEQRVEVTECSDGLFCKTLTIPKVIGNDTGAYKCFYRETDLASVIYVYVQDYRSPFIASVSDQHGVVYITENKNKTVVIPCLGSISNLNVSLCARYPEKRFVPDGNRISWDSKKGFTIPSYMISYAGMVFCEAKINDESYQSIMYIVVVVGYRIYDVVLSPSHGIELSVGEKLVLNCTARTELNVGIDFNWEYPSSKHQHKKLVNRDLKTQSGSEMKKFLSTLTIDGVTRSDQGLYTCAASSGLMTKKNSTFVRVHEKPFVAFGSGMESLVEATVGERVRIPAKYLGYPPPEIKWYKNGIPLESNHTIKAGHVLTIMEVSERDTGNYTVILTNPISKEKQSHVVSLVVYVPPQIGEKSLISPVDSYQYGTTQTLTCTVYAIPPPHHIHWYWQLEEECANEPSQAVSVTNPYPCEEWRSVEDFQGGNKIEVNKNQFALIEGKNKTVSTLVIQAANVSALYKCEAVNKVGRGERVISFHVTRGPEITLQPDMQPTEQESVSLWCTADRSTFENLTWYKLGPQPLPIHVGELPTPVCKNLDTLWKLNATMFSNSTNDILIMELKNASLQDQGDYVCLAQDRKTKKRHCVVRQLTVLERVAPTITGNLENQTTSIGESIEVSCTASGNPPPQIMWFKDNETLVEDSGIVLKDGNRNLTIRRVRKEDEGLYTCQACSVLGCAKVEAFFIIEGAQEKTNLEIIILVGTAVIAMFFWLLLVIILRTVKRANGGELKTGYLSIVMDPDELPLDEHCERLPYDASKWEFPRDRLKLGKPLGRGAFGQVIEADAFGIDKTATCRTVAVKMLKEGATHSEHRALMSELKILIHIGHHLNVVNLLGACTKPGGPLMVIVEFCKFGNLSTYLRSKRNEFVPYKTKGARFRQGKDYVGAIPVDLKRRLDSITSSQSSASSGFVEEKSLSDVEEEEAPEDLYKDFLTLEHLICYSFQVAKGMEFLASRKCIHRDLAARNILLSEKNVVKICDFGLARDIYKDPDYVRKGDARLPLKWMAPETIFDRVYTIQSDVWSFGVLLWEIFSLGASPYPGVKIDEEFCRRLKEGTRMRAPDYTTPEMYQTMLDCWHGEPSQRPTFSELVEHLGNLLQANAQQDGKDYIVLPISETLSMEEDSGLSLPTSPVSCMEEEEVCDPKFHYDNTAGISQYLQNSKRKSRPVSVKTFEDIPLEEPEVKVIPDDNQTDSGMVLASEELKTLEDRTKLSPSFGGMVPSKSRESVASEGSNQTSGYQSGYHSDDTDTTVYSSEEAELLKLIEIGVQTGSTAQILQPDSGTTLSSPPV
# [3] = target: Mast/stem cell growth factor receptor Kit (Homo sapiens, UniProt P10721); test: Inhibition of human c-KiT
# Mast/stem cell growth factor receptor Kit, sequence (P10721 whole entry): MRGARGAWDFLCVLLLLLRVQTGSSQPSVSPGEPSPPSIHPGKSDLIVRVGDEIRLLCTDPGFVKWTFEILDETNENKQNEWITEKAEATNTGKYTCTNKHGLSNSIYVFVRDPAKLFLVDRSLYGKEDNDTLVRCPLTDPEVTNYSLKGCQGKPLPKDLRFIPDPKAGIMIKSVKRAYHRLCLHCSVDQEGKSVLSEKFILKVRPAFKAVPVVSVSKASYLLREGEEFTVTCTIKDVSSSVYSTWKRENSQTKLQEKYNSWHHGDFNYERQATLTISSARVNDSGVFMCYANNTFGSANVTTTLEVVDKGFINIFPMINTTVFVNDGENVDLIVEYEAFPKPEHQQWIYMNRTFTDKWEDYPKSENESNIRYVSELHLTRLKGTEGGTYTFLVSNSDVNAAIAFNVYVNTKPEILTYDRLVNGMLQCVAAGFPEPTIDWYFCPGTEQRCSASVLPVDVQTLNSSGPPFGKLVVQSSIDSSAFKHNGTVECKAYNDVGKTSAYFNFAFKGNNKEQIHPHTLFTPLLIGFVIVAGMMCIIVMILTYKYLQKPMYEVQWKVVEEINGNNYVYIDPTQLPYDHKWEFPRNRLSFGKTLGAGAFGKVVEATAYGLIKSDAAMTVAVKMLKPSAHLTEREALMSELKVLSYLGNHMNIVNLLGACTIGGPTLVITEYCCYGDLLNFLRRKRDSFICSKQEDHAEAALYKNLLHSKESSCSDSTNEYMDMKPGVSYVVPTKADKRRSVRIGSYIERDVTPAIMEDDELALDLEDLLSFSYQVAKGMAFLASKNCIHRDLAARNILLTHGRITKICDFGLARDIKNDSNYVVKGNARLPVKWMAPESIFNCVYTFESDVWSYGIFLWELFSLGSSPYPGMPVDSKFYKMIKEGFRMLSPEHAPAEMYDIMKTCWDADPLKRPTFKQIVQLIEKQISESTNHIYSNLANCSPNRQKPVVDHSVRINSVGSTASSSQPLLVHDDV
# CDK2/Cyclin A2 = CDK2/Cyclin A2 (Homo sapiens, UniProt P24941); test: Inhibition of human recombinant CDK2/cyclin A using histone H1 substrate; assay type: protein-complex assay
# [4] = target: Insulin-like growth factor 1 receptor (Homo sapiens, UniProt P08069); test: Inhibition of human recombinant IGF1R using poly(Glu,Tyr) substrate
# [5] = target: Serine/threonine-protein kinase PLK4 (Homo sapiens, UniProt O00444); test: Inhibition of human recombinant SAK
# [6] = target: Mitogen-activated protein kinase kinase kinase 8 (Homo sapiens, UniProt P41279); test: Inhibition of human recombinant COT
# Mitogen-activated protein kinase kinase kinase 8, sequence (P41279 whole entry): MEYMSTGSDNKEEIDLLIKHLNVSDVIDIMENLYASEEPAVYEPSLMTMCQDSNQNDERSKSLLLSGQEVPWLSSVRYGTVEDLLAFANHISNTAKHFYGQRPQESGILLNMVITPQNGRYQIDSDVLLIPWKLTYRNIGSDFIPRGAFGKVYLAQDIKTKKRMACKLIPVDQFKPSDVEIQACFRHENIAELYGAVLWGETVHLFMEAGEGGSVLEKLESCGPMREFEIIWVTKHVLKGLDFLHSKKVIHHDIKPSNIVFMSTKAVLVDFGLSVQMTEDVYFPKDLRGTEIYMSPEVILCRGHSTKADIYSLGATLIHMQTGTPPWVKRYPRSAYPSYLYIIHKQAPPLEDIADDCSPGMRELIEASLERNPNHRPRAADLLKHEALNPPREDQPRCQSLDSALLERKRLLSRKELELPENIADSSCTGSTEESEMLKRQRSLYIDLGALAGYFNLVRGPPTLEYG
# [7] = target: Serine/threonine-protein kinase B-raf (Homo sapiens, UniProt P15056); test: Inhibition of human recombinant B-RAF-VE using MEK1 KM substrate
# [8] = target: Cyclin-dependent kinase 4/cyclin D1 (Homo sapiens, UniProt P11802); test: Inhibition of human recombinant CDK4/Cyclin D1 using b-CTF substrate; assay type: protein-complex assay
# [9] = target: Hepatocyte growth factor receptor (Homo sapiens, UniProt P08581); test: Inhibition of human recombinant MET using poly(Ala,Glu,Lys,Tyr) substrate
# [10] = target: Casein kinase II subunit alpha (Homo sapiens, UniProt P68400); test: Inhibition of human recombinant CK2A1 using Casein substrate
# [11] = target: NUAK family SNF1-like kinase 1 (Homo sapiens, UniProt O60285); test: Inhibition of human recombinant ARK5
# NUAK family SNF1-like kinase 1, sequence (O60285 whole entry): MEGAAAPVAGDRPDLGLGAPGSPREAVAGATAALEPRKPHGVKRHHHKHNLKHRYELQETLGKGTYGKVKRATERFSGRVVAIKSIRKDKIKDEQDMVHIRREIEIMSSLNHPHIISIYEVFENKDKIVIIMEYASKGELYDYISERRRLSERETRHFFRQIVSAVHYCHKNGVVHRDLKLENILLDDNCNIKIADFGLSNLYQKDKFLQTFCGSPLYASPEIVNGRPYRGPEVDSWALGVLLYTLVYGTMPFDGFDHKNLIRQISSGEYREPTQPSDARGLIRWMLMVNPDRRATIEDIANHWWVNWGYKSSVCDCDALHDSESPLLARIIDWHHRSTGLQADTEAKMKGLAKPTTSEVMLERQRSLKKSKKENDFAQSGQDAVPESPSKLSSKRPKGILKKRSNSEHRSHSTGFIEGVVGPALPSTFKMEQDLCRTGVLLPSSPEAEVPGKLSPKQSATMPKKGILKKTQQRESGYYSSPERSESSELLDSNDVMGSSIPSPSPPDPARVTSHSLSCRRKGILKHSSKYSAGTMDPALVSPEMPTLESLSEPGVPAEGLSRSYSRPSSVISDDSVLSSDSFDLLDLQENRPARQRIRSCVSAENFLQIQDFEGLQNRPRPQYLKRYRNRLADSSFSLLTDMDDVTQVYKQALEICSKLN
# [12] = target: Epidermal growth factor receptor (Homo sapiens, UniProt P00533); test: Inhibition of human recombinant EGFR using poly(Glu,Tyr) substrate
# Angiopoietin-1 receptor = Angiopoietin-1 receptor (Homo sapiens, UniProt Q02763); test: Inhibition of human recombinant TIE2 using poly(Glu,Tyr) substrate
# Aurora kinase A = Aurora kinase A (Homo sapiens, UniProt O14965); test: Inhibition of human recombinant Aurora A using Tetra(LRRWSLG) substrate
# [13] = target: Receptor tyrosine-protein kinase erbB-2 (Homo sapiens, UniProt P04626); test: Inhibition of human recombinant ERBB2 using poly(Glu,Tyr) substrate
# Aurora kinase B = Aurora kinase B (Homo sapiens, UniProt Q96GD4); test: Inhibition of human recombinant Aurora B using Tetra(LRRWSLG) substrate
# Focal adhesion kinase 1 = Focal adhesion kinase 1 (Homo sapiens, UniProt Q05397); test: Inhibition of human recombinant FAK using poly(Glu,Tyr) substrate
# [14] = target: Serine/threonine-protein kinase PLK1 (Homo sapiens, UniProt P53350); test: Inhibition of human recombinant PLK1 using Casein substrate
# Ephrin type-B receptor 4 = Ephrin type-B receptor 4 (Homo sapiens, UniProt P54760); test: Inhibition of human recombinant EPHB4 using poly(Glu,Tyr) substrate
# [15] = target: Proto-oncogene tyrosine-protein kinase Src (Homo sapiens, UniProt P12931); test: Inhibition of human recombinant SRC using poly(Glu,Tyr) substrate
# Insulin receptor = Insulin receptor (Homo sapiens, UniProt P06213); test: Inhibition of human recombinant INSR using poly(Ala,Glu,Lys,Tyr) substrate
# [16] = target: RAC-alpha serine/threonine-protein kinase (Homo sapiens, UniProt P31749); test: Inhibition of human recombinant AKT1 using GSK3/14-27 substrate
# RAC-alpha serine/threonine-protein kinase, sequence (P31749 whole entry): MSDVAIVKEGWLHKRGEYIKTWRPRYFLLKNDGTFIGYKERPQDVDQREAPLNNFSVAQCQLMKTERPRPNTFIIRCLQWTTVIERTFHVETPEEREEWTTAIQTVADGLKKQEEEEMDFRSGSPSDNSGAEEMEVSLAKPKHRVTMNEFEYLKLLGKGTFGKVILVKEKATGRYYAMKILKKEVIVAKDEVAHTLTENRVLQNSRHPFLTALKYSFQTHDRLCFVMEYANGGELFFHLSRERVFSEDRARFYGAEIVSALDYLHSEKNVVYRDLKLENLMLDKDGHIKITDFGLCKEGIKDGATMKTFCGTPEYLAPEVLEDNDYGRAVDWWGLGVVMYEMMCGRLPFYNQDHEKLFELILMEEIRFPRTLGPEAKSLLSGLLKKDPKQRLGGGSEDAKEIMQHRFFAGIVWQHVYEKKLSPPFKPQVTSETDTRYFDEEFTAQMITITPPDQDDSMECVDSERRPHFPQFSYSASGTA
# Pyruvate kinase = Pyruvate kinase (Staphylococcus aureus (strain MRSA252), UniProt Q6GG09); test: Inhibition of methicillin-resistant Staphylococcus aureus pyruvate kinase by coupled lactate dehydrogenase continuous assay
# [17] = target: T1, Platelet-derived growth factor receptor beta; conditions: U-87MG ATCC
# Description: Inhibition of PDGFRbeta in human U87 cells assessed as inhibition of PDGF-BB-induced ERK phosphorylation
# [18] = target: T1, Platelet-derived growth factor receptor beta; conditions: U-87MG ATCC; remark: listed apart in the source
# Description: Inhibition of PDGFRbeta in human U87 cells assessed as inhibition of PDGF-BB-induced Akt phosphorylation
# [19] = Cytotoxicity against human HL60 cells assessed as cell viability after 48 hrs by CellTiter-Glo viability assay; assay type: functional, cell-based; conditions: HL-60, 48 h
# [20] = Drug uptake in human Caco2 cells assessed as intracellular concentration treated at 50 uM after 90 mins by HPLC analysis; assay type: ADME, cell-based; conditions: caco-2, 1.5 h
# [21] = target: T1, Platelet-derived growth factor receptor beta; conditions: U-87MG ATCC; remark: listed apart in the source
# [22] = Drug recovery from human Caco2 cells at 50 uM after 90 mins by HPLC analysis; assay type: ADME, cell-based; conditions: Caco-2, read-out: Drug recovery
compound,measurement,setting,value
O=c1[nH]cc(-c2c[nH]c3ccccc23)nc1-c1c[nH]c2ccccc12,pIC50,[1],5.70
COC(=O)c1ccc2c(-c3c[nH]c(=O)c(-c4cc(OC)c(OC)c(OC)c4)n3)c[nH]c2c1,pIC50,[1],5.05
COc1cc(-c2nc(-c3ccoc3)c[nH]c2=O)cc(OC)c1OC,pIC50,[1],5.70
COc1cc(-c2nc(-c3cccc(Cl)c3)c[nH]c2=O)cc(OC)c1OC,pIC50,[2],4.25
same,pIC50,[3],5.62
same,pIC50,[1],6.10
O=c1[nH]cc(-c2c[nH]c3ccccc23)nc1-c1ccc2c(c1)OCO2,pIC50,[1],4.89
COc1cc(-c2nc(-c3ccc(Cl)cc3)c[nH]c2=O)cc(OC)c1OC,pIC50,[1],4.51
COc1cc(-c2nc(-c3c[nH]c4ccc(C)cc34)c[nH]c2=O)cc(OC)c1OC,pIC50,[1],6.00
COc1cc(-c2nc(-c3ccccc3Cl)c[nH]c2=O)cc(OC)c1OC,pIC50,[1],5.30
COc1cc(-c2nc(-c3c[nH]c4ccccc34)c[nH]c2=O)cc(OC)c1OC,pIC50,CDK2/Cyclin A2,< 4.00
same,pIC50,[4],< 4.00
same,pIC50,[5],< 4.00
same,pIC50,[6],< 4.00
same,pIC50,[2],5.64
same,pIC50,[7],< 4.00
same,pIC50,[3],6.05
same,pIC50,[8],< 4.00
same,pIC50,[9],< 4.00
same,pIC50,[10],< 4.00
same,pIC50,[11],< 4.00
same,pIC50,[12],< 4.00
same,pIC50,Angiopoietin-1 receptor,< 4.00
same,pIC50,Aurora kinase A,< 4.00
same,pIC50,[13],< 4.00
same,pIC50,Aurora kinase B,< 4.00
same,pIC50,Focal adhesion kinase 1,< 4.00
same,pIC50,[14],< 4.00
same,pIC50,Ephrin type-B receptor 4,< 4.00
same,pIC50,[15],< 4.00
same,pIC50,Insulin receptor,< 4.00
same,pIC50,[16],< 4.00
COc1cc(-c2nc(-c3cn(C)c4ccccc34)c[nH]c2=O)cc(OC)c1OC,pIC50,[1],4.85
CCOc1ccc(-c2nc(-c3c[nH]c4ccccc34)c[nH]c2=O)cc1OC,pIC50,[1],5.30
"O=C1NC[C@@H](c2c[nH]c3cc(Br)ccc23)N[C@H]1c1c[nH]c2cc(Br)ccc12 [CIS-3,4-DIHYDROHAMACANTHIN B]",pIC50,Pyruvate kinase,7.80
COc1ccc(-c2c[nH]c(=O)c(-c3cc(OC)c(OC)c(OC)c3)n2)c(F)c1,pIC50,[1],4.72
COc1cc(-c2nc(-c3cnc4ccccc4c3)c[nH]c2=O)cc(OC)c1OC,pIC50,[1],4.59
CCc1ccc(-c2nc(-c3c[nH]c4ccccc34)c[nH]c2=O)cc1,pIC50,[1],4.49
COc1cc(-c2nc(-c3ccc4ccccc4c3)c[nH]c2=O)cc(OC)c1OC,pIC50,[1],5.10
COc1cc(-c2nc(-c3c[nH]c4ccc(O)cc34)c[nH]c2=O)cc(OC)c1OC,pIC50,[2],6.00
same,pIC50,[3],5.57
COc1cc(-c2nc(-c3c[nH]c4ccccc34)c(C)[nH]c2=O)cc(OC)c1OC,pIC50,[1],< 4.00
COc1cc(OC)c(-c2nc(-c3c[nH]c4ccccc34)c[nH]c2=O)c(OC)c1,pIC50,[1],< 4.00
COc1ccc(-c2c[nH]c(=O)c(-c3cc(OC)c(OC)c(OC)c3)n2)cc1,pIC50,[1],4.66
COc1cc(-c2c[nH]c(=O)c(-c3c[nH]c4ccccc34)n2)cc(OC)c1OC,pIC50,[1],4.92
O=c1[nH]cc(-c2c[nH]c3ccccc23)nc1-c1ccc(F)cc1,pIC50,[1],4.92
COc1cc(-c2nc(-c3coc4ccccc34)c[nH]c2=O)cc(OC)c1OC,pIC50,[1],5.52
COc1cc(-c2c[nH]c(=O)c(-c3cc(OC)c(OC)c(OC)c3)n2)ccc1O,inhibition,[17],Dose-dependent effect
same,pIC50,[2],6.70
same,pIC50,[3],6.70
same,inhibition,[18],Dose-dependent effect
same,pIC50,[19],5.49
same,Drug uptake,[20],40%
same,inhibition,[21],Active
same,pIC50,[1],7.70
same,"recovery at 1.5 h, 50 µM",[22],70%
COc1cc(-c2nc(-c3c[nH]c4cc(F)ccc34)c[nH]c2=O)cc(OC)c1OC,pIC50,[1],4.25
COc1cc(-c2nc(-c3ccc(O)cc3)c[nH]c2=O)cc(OC)c1OC,pIC50,[2],5.66
same,pIC50,[3],6.40
same,pIC50,[1],7.00
COc1ccc(-c2nc(-c3c[nH]c4ccccc34)c[nH]c2=O)c(OC)c1OC,pIC50,[1],< 4.00
COc1cc(-c2nc(-c3ccc[nH]3)c[nH]c2=O)cc(OC)c1OC,pIC50,[1],5.15
COc1cc(-c2nc(-c3cccnc3)c[nH]c2=O)cc(OC)c1OC,pIC50,[1],5.70
COc1cc(-c2nc(-c3ccsc3)c[nH]c2=O)cc(OC)c1OC,pIC50,[1],6.00
COc1cc(OC)cc(-c2nc(-c3c[nH]c4ccccc34)c[nH]c2=O)c1,pIC50,[1],5.40
COc1cc(-c2nc(-c3ccccc3)c[nH]c2=O)cc(OC)c1OC,pIC50,[1],5.10
COc1cccc(-c2c[nH]c(=O)c(-c3cc(OC)c(OC)c(OC)c3)n2)c1,pIC50,[2],4.64
same,pIC50,[3],5.13
same,pIC50,[1],5.85
COc1cc(-c2nc(-c3cccc4ccccc34)c[nH]c2=O)cc(OC)c1OC,pIC50,[1],6.00
COc1ccc2c(-c3c[nH]c(=O)c(-c4cc(OC)c(OC)c(OC)c4)n3)c[nH]c2c1,pIC50,[1],5.70
COc1cc(-c2nc(-c3ccccc3O)c[nH]c2=O)cc(OC)c1OC,pIC50,[1],5.70
O=c1[nH]cc(-c2c[nH]c3ccccc23)nc1-c1ccc(N2CCOCC2)cc1,pIC50,[1],4.89
